Laboratory results: US9149038B2, “4-amino-6-(heterocyclic)picolinates and 6-amino-2-(heterocyclic)pyrimidine-4-carboxylates and their use as herbicides” (Dow AgroSciences LLC, priority 2013, dated 2015)
Read-outs that look alike come from different tables or passages of the source.

Columns and labels:
[1] = tested on: Key Grass and Sedge Weeds as well as Grass Crops; assay: Post-Emergent Test II: postemergent herbicidal activity, visual rating after 14 d (Table 8); type: in vivo; conditions: post-emergence, 336 h; for pest or weed control at 35 g/ha: 35 g ai/ha; for pest or weed control at 70 g/ha: 70 g ai/ha; for pest or weed control at 140 g/ha: 140 g ai/ha
How it was run: (§1)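 Visual 0-100% injury score (0 no injury, 100 complete kill) at 14 d post-spray, relative to untreated plants. Seedlings at 1st-2nd true leaf stage; track sprayer at 187 L/ha, highest rate plus ½×, ¼×, ⅛×, 1/16× serial dilutions. Subirrigated after treatment.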

[2] = tested on: Key Broadleaf Weed and Crop Species; assay: Post-Emergent Test II: postemergent herbicidal activity, visual rating after 14 d (Table 7); type: in vivo; conditions: post-emergence, 336 h; for pest or weed control at 35 g/ha: 35 g ai/ha; for pest or weed control at 70 g/ha: 70 g ai/ha; for pest or weed control at 140 g/ha: 140 g ai/ha
How it was run: as §1

[3] = barnyardgrass (Echinochloa crus-galli), read-out: Visual Growth Reduction (%) 14 Days After Application, ECHCG
[4] = giant foxtail (Setaria faberi), read-out: Visual Growth Reduction (%) 14 Days After Application, SETFA
[5] = maize, corn (Zea mays), read-out: Visual Growth Reduction (%) 14 Days After Application, ZEAMX
[6] = rice (Oryza sativa), read-out: Visual Growth Reduction (%) 14 Days After Application, ORYSA
[7] = wheat, spring (Triticum aestivum), read-out: Visual Growth Reduction (%) 14 Days After Application, TRZAS
[8] = yellow nutsedge (Cyperus esculentus), read-out: Visual Growth Reduction (%) 14 Days After Application, CYPES
[9] = ABUTH: velvetleaf (Abutilon theophrasti), read-out: Visual Growth Reduction (%) 14 Days After Application ABUTH
[10] = AMARE: redroot pigweed (Amaranthus retroflexus), read-out: Visual Growth Reduction (%) 14 Days After Application AMARE
[11] = BRSNN: oilseed rape, canola (Brassica napus), read-out: Visual Growth Reduction (%) 14 Days After Application BRSNN
[12] = CHEAL: lambsquarters (Chenopodium album), read-out: Visual Growth Reduction (%) 14 Days After Application CHEAL
[13] = EPHHL: wild poinsettia (Euphorbia heterophylla), read-out: Visual Growth Reduction (%) 14 Days After Application EPHHL
[14] = HELAN: sunflower (Helianthus annuus), read-out: Visual Growth Reduction (%) 14 Days After Application HELAN

In the case of `Nc1cc(-c2c(F)ccc3c2OC(F)(F)O3)nc(C(=O)O)c1Cl` [Compound 91], the pest or weed control at 35 g/ha [1, 3] is reported as 0 to 29%, the pest or weed control at 70 g/ha [1, 3] is reported as 0 to 29% and the pest or weed control at 140 g/ha [1, 3] is reported as 0 to 29%. For the same molecule, the pest or weed control at 35 g/ha [1, 4] was 0 to 29%, the pest or weed control at 70 g/ha [1, 4] was 0 to 29% and the pest or weed control at 140 g/ha [1, 4] was 0 to 29%. The pest or weed control at 35 g/ha [1, 5] was 0 to 29%, the pest or weed control at 70 g/ha [1, 5] was 0 to 29% and the pest or weed control at 140 g/ha [1, 5] was 0 to 29%. For the same molecule, the pest or weed control at 35 g/ha [1, 6] was 0 to 29%, the pest or weed control at 70 g/ha [1, 6] was 0 to 29% and the pest or weed control at 140 g/ha [1, 6] was 0 to 29%. The pest or weed control at 35 g/ha [1, 7] was 0 to 29%, the pest or weed control at 70 g/ha [1, 7] was 0 to 29% and the pest or weed control at 140 g/ha [1, 7] was 0 to 29%. The pest or weed control at 35 g/ha [1, 8] was 0 to 29%, the pest or weed control at 70 g/ha [1, 8] was 0 to 29% and the pest or weed control at 140 g/ha [1, 8] was 0 to 29%. For the same molecule, the pest or weed control at 35 g/ha [2, 9] was 60 to 74%, the pest or weed control at 70 g/ha [2, 9] was 75 to 84% and the pest or weed control at 140 g/ha [2, 9] was 75 to 84%. It also gave a pest or weed control at 35 g/ha [2, 10] of 95 to 100%, a pest or weed control at 70 g/ha [2, 10] of 95 to 100% and a pest or weed control at 140 g/ha [2, 10] of 95 to 100%. For the same molecule, the pest or weed control at 35 g/ha [2, 11] was 0 to 29%, the pest or weed control at 70 g/ha [2, 11] was 45 to 59% and the pest or weed control at 140 g/ha [2, 11] was 60 to 74%. It also gave a pest or weed control at 35 g/ha [2, 12] of 95 to 100%, a pest or weed control at 70 g/ha [2, 12] of 95 to 100% and a pest or weed control at 140 g/ha [2, 12] of 95 to 100%. It also gave a pest or weed control at 35 g/ha [2, 13] of 0 to 29%, a pest or weed control at 70 g/ha [2, 13] of 0 to 29% and a pest or weed control at 140 g/ha [2, 13] of 0 to 29%. For the same molecule, the pest or weed control at 35 g/ha [2, 14] was 0 to 29%, the pest or weed control at 70 g/ha [2, 14] was 0 to 29% and the pest or weed control at 140 g/ha [2, 14] was 0 to 29%.
